{"source": "patent US4315933A", "about": "“Antibacterial amide compounds and pharmaceutical compositions containing the same” (Warner-Lambert Company, priority 1980, dated 1982)", "assay_in_all_cases": "Minimal Inhibitory Concentration, in vitro", "format_in_all_cases": "cell-based", "key": {"Kleb. pneu.": {"test_system": "Kleb. pneu."}, "Staph. aureus S18713": {"test_system": "Staph. aureus S18713", "conditions": "for MIC: Staphylococcus aureus"}, "Serr. marces.": {"test_system": "Serr. marces."}, "[1]": {"test_system": "Pseudomonas aeruginosa #28"}, "Entero. cloacae": {"test_system": "Entero. cloacae", "conditions": "for MIC: Enterobacter cloacae"}}}
{"compound": "CC1(C)S[C@@H]2[C@H](NC(=O)[C@H](NC(=O)c3cnc(-c4ccc(NC(=O)CC#N)cc4)nc3O)c3ccc(O)cc3)C(=O)N2[C@H]1C(=O)O", "note": "[Example 4, N-[2-[4-(Cyanoacetylamino)phenyl]-4-hydroxy-5-pyrimidinylcarbonyl]amoxicillin]", "values": [{"measurement": "MIC", "setting": "Kleb. pneu.", "value": 25, "unit": "µg/mL"}, {"measurement": "MIC", "setting": "Staph. aureus S18713", "value": "> 50", "unit": "µg/mL"}, {"measurement": "MIC", "setting": "Serr. marces.", "value": 3.1, "unit": "µg/mL"}, {"measurement": "MIC", "setting": "[1]", "value": 0.8, "unit": "µg/mL"}, {"measurement": "MIC", "setting": "Entero. cloacae", "value": 3.1, "unit": "µg/mL"}]}
{"compound": "COCC(=O)Nc1ccc(-c2ncc(C(=O)N[C@@H](C(=O)N[C@@H]3C(=O)N4[C@@H]3SC(C)(C)[C@@H]4C(=O)O)c3ccccc3)c(O)n2)cc1", "note": "[Example 5, N-[2-[4-(Methoxyacetylamino)phenyl]-4-hydroxy-5-pyrimidinylcarbonyl]ampicillin]", "values": [{"measurement": "MIC", "setting": "Kleb. pneu.", "value": 25, "unit": "µg/mL"}, {"measurement": "MIC", "setting": "Staph. aureus S18713", "value": 100, "unit": "µg/mL"}, {"measurement": "MIC", "setting": "Serr. marces.", "value": 100, "unit": "µg/mL"}, {"measurement": "MIC", "setting": "[1]", "value": 3.1, "unit": "µg/mL"}, {"measurement": "MIC", "setting": "Entero. cloacae", "value": 12.5, "unit": "µg/mL"}]}
{"compound": "CCNC(=O)Nc1ccc(-c2ncc(C(=O)N[C@@H](C(=O)N[C@@H]3C(=O)N4[C@@H]3SC(C)(C)[C@@H]4C(=O)O)c3ccc(O)cc3)c(O)n2)cc1", "note": "[Example 8, N-[2-[4-(N-Ethylcarbamoylamino)phenyl]-4-hydroxy-5-pyrimidinylcarbonyl]amoxicillin]", "values": [{"measurement": "MIC", "setting": "Kleb. pneu.", "value": 12.5, "unit": "µg/mL"}, {"measurement": "MIC", "setting": "Staph. aureus S18713", "value": "> 50", "unit": "µg/mL"}, {"measurement": "MIC", "setting": "Serr. marces.", "value": 3.1, "unit": "µg/mL"}, {"measurement": "MIC", "setting": "[1]", "value": 0.8, "unit": "µg/mL"}, {"measurement": "MIC", "setting": "Entero. cloacae", "value": 6.3, "unit": "µg/mL"}]}
{"compound": "N-[2-[4-(Acetylamino)phenyl]-4-hydroxy-5-pyrimidinylcarbonyl]amoxicillin [Example 2]", "values": [{"measurement": "Minimal Inhibitory Concentration", "setting": "Kleb. pneu.", "value": 6.3, "unit": "µg/mL"}, {"measurement": "Minimal Inhibitory Concentration", "setting": "Serr. marces.", "value": 200, "unit": "µg/mL"}, {"measurement": "Minimal Inhibitory Concentration", "setting": "[1]", "value": 1.6, "unit": "µg/mL"}]}
{"compound": "N-[2-[4-(Dichloroacetylamino)phenyl]-4-hydroxy-5-pyrimidinylcarbonyl]amoxicillin [Example 1]", "values": [{"measurement": "Minimal Inhibitory Concentration", "setting": "Kleb. pneu.", "value": 12.5, "unit": "µg/mL"}, {"measurement": "Minimal Inhibitory Concentration", "setting": "Staph. aureus S18713", "value": 50, "unit": "µg/mL"}, {"measurement": "Minimal Inhibitory Concentration", "setting": "Serr. marces.", "value": 200, "unit": "µg/mL"}, {"measurement": "Minimal Inhibitory Concentration", "setting": "[1]", "value": 1.6, "unit": "µg/mL"}, {"measurement": "Minimal Inhibitory Concentration", "setting": "Entero. cloacae", "value": 1.6, "unit": "µg/mL"}]}
{"compound": "N-[2-[4-(Trifluoroacetylamino)phenyl]-4-hydroxy-5-pyrimidinylcarbonyl]amoxicillin [Example 3]", "values": [{"measurement": "Minimal Inhibitory Concentration", "setting": "Kleb. pneu.", "value": 12.5, "unit": "µg/mL"}, {"measurement": "Minimal Inhibitory Concentration", "setting": "Staph. aureus S18713", "value": "> 50", "unit": "µg/mL"}, {"measurement": "Minimal Inhibitory Concentration", "setting": "Serr. marces.", "value": 3.1, "unit": "µg/mL"}, {"measurement": "Minimal Inhibitory Concentration", "setting": "[1]", "value": 0.8, "unit": "µg/mL"}, {"measurement": "Minimal Inhibitory Concentration", "setting": "Entero. cloacae", "value": 6.3, "unit": "µg/mL"}]}
{"compound": "N-[2-[4-[(2,2,2-Trifluoroethyl)thio]acetylamino]phenyl]-4-hydroxy-5-pyrimidinylcarbonyl]amoxicillin [Example 7]", "values": [{"measurement": "Minimal Inhibitory Concentration", "setting": "Kleb. pneu.", "value": 50, "unit": "µg/mL"}, {"measurement": "Minimal Inhibitory Concentration", "setting": "Staph. aureus S18713", "value": 50, "unit": "µg/mL"}, {"measurement": "Minimal Inhibitory Concentration", "setting": "Serr. marces.", "value": 200, "unit": "µg/mL"}]}
{"compound": "N-[2-[4-[(2-Ethoxy-1,2-dioxoethyl)amino]phenyl]-4-hydroxy-5-pyrimidinylcarbonyl]amoxicillin [Example 6]", "values": [{"measurement": "Minimal Inhibitory Concentration", "setting": "Kleb. pneu.", "value": 25, "unit": "µg/mL"}, {"measurement": "Minimal Inhibitory Concentration", "setting": "[1]", "value": 1.6, "unit": "µg/mL"}, {"measurement": "Minimal Inhibitory Concentration", "setting": "Entero. cloacae", "value": "12,5 μg/ml"}]}
